In patent US11484539B2, “Compounds and their uses for alleviating menopause-associated symptoms” (Estetra SPRL, priority 2018, dated 2022):

Tested on: post-menopausal women
Assay: Weekly severity of moderate to severe VMS, dose-finding study
Format: in vivo
From the text: To determine the Minimum Effective Dose (MED), firstly the selection criteria required that patients presented at least 7 moderate to severe VMS/day or at least 50 moderate to severe VMS/week in the week preceding randomization. Secondly, a placebo group was included in a double-blind fashion. Thirdly, the total patient number was such that statistical significance could be obtained between separate arms of the study. Fourthly, the absolute change from baseline in weekly frequency of moderate to severe VMS was taken into account. An analysis of covariance (ANCOVA) was performed based on the untransformed change in weekly frequency of moderate to severe VMS from baseline. Finally, the change in severity from baseline was evaluated. For this, the Severity Scoring System of VMS was documented by the subjects as follows: • a score of Mild (1) for a sensation of heat without sweating; • a score of Moderate (2) for a sensation of heat with sweating/the subject is able to continue activity; and • a score of Severe (3) for a sensation of heat with sweating/which causes cessation of activity.
In addition, a severity score of zero was attributed to the patients who have experienced a 100% VMS relief during a given week.
From these score records, the severity at baseline was calculated by taking into account only moderate and severe VMS, such that the total number of moderate VMS during the 7 days of the baseline week was multiplied by 2 and added to the total number of severe VMS during the 7 days of the baseline week multiplied by 3. This total was then divided by the total number of moderate and severe VMS during the baseline week.
The severity at weeks 4 and 12 was calculated using the following formula for each of these weeks: • the number of mild VMS during 7 days multiplied by 1; • the number of moderate VMS during 7 days multiplied by 2; • the number of severe VMS during 7 days multiplied by 3. and adding the 3 resulting numbers together before dividing this total by the total number of mild, moderate and severe VMS during the 7 days of the week.
This method was used to generate the data included in Example 1 further below, under section A. b) “VMS Severity”.
In order to better analyse the data recorded in this study, treatment groups have been compared using an ANCOVA (analysis of covariance) with respect to the change in severity of moderate to severe VMS from baseline to mild, moderate and severe VMS at week 4 and week 12 for each active treatment versus placebo. For women who experienced 100% VMS relief at week 4 and/or week 12, a value of zero was attributed. The ANCOVA model includes treatment (“trt1”) as a fixed effect and baseline (“base”) as a covariate. • b) Covariate significance

C[C@]12CC[C@@H]3c4ccc(O)cc4CC[C@H]3[C@@H]1[C@@H](O)[C@@H](O)[C@@H]2O [E4, 1,3,5 (10)-estratrien-3,15alpha,16alpha,17beta-tetrol]
Difference with placebo, LS adjusted mean, relative change in weekly severity of moderate to severe VMS (5 mg E4 vs placebo, week 12): 0.1149 | LS adjusted mean change from baseline in weekly severity of moderate to severe VMS (10 mg E4, week 4): −0.4825 | LS adjusted mean relative change from baseline in weekly severity of moderate to severe VMS (10 mg E4, week 4): −0.2016 | LS adjusted mean relative change from baseline in weekly severity of moderate to severe VMS (10 mg E4, week 12): −0.2862 | Mean change from baseline in weekly severity of moderate to severe VMS (10 mg E4 QD per os, week 1): −0.2028 | Relative change (% from baseline) in weekly severity of moderate to severe VMS, mean (10 mg E4 QD per os, week 1): −8% | Mean change from baseline in weekly severity of moderate to severe VMS (10 mg E4 QD per os, week 2): −0.3007 | Relative change (% from baseline) in weekly severity of moderate to severe VMS, mean (10 mg E4 QD per os, week 2): −13% | Mean change from baseline in weekly severity of moderate to severe VMS (10 mg E4 QD per os, week 3): −0.3983 | Relative change (% from baseline) in weekly severity of moderate to severe VMS, mean (10 mg E4 QD per os, week 3): −17% | Mean change from baseline in weekly severity of moderate to severe VMS (10 mg E4 QD per os, week 4): −0.4842 | Relative change (% from baseline) in weekly severity of moderate to severe VMS, mean (10 mg E4 QD per os, week 4): −20% | Mean change from baseline in weekly severity of moderate to severe VMS (10 mg E4 QD per os, week 5): −0.5107 | Relative change (% from baseline) in weekly severity of moderate to severe VMS, mean (10 mg E4 QD per os, week 5): −21% | Mean change from baseline in weekly severity of moderate to severe VMS (10 mg E4 QD per os, week 6): −0.6086 | Relative change (% from baseline) in weekly severity of moderate to severe VMS, mean (10 mg E4 QD per os, week 6): −26% | Mean change from baseline in weekly severity of moderate to severe VMS (10 mg E4 QD per os, week 7): −0.643 | Relative change (% from baseline) in weekly severity of moderate to severe VMS, mean (10 mg E4 QD per os, week 7): −27% | Mean change from baseline in weekly severity of moderate to severe VMS (10 mg E4 QD per os, week 8): −0.6644 | Relative change (% from baseline) in weekly severity of moderate to severe VMS, mean (10 mg E4 QD per os, week 8): −28% | Mean change from baseline in weekly severity of moderate to severe VMS (10 mg E4 QD per os, week 9): −0.6864 | Relative change (% from baseline) in weekly severity of moderate to severe VMS, mean (10 mg E4 QD per os, week 9): −28% | Mean change from baseline in weekly severity of moderate to severe VMS (10 mg E4 QD per os, week 10): −0.709 | Relative change (% from baseline) in weekly severity of moderate to severe VMS, mean (10 mg E4 QD per os, week 10): −29% | Mean change from baseline in weekly severity of moderate to severe VMS (10 mg E4 QD per os, week 11): −0.666 | Relative change (% from baseline) in weekly severity of moderate to severe VMS, mean (10 mg E4 QD per os, week 11): −25% | Mean change from baseline in weekly severity of moderate to severe VMS (10 mg E4 QD per os, week 12): −0.6941 | Relative change (% from baseline) in weekly severity of moderate to severe VMS, mean (10 mg E4 QD per os, week 12): −28% | Difference with placebo, LS adjusted mean, absolute change in weekly severity of moderate to severe VMS (10 mg E4 vs placebo, week 4): −0.1547 | Difference with placebo, LS adjusted mean, relative change in weekly severity of moderate to severe VMS (10 mg E4 vs placebo, week 4): −0.06058 | Difference with placebo, LS adjusted mean, absolute change in weekly severity of moderate to severe VMS (10 mg E4 vs placebo, week 12): −0.03512 | Difference with placebo, LS adjusted mean, relative change in weekly severity of moderate to severe VMS (10 mg E4 vs placebo, week 12): −0.006415 | LS adjusted mean change from baseline in weekly severity of moderate to severe VMS (15 mg E4, week 4): −0.5888 | LS adjusted mean relative change from baseline in weekly severity of moderate to severe VMS (15 mg E4, week 4): −0.2427 | LS adjusted mean relative change from baseline in weekly severity of moderate to severe VMS (15 mg E4, week 12): −0.4375 | Mean change from baseline in weekly severity of moderate to severe VMS (15 mg E4 QD per os, week 1): −0.072 | Relative change (% from baseline) in weekly severity of moderate to severe VMS, mean (15 mg E4 QD per os, week 1): −3% | Mean change from baseline in weekly severity of moderate to severe VMS (15 mg E4 QD per os, week 2): −0.2853 | Relative change (% from baseline) in weekly severity of moderate to severe VMS, mean (15 mg E4 QD per os, week 2): −12% | Mean change from baseline in weekly severity of moderate to severe VMS (15 mg E4 QD per os, week 3): −0.4842 | Relative change (% from baseline) in weekly severity of moderate to severe VMS, mean (15 mg E4 QD per os, week 3): −20% | Mean change from baseline in weekly severity of moderate to severe VMS (15 mg E4 QD per os, week 4): −0.5897 | Relative change (% from baseline) in weekly severity of moderate to severe VMS, mean (15 mg E4 QD per os, week 4): −24% | Mean change from baseline in weekly severity of moderate to severe VMS (15 mg E4 QD per os, week 5): −0.7432 | Relative change (% from baseline) in weekly severity of moderate to severe VMS, mean (15 mg E4 QD per os, week 5): −31% | Mean change from baseline in weekly severity of moderate to severe VMS (15 mg E4 QD per os, week 6): −0.7035 | Relative change (% from baseline) in weekly severity of moderate to severe VMS, mean (15 mg E4 QD per os, week 6): −30% | Mean change from baseline in weekly severity of moderate to severe VMS (15 mg E4 QD per os, week 7): −0.8112 | Relative change (% from baseline) in weekly severity of moderate to severe VMS, mean (15 mg E4 QD per os, week 7): −34% | Mean change from baseline in weekly severity of moderate to severe VMS (15 mg E4 QD per os, week 8): −0.8854 | Relative change (% from baseline) in weekly severity of moderate to severe VMS, mean (15 mg E4 QD per os, week 8): −37% | Mean change from baseline in weekly severity of moderate to severe VMS (15 mg E4 QD per os, week 9): −0.9092 | Relative change (% from baseline) in weekly severity of moderate to severe VMS, mean (15 mg E4 QD per os, week 9): −38% | Mean change from baseline in weekly severity of moderate to severe VMS (15 mg E4 QD per os, week 10): −0.9628 | Relative change (% from baseline) in weekly severity of moderate to severe VMS, mean (15 mg E4 QD per os, week 10): −40% | Mean change from baseline in weekly severity of moderate to severe VMS (15 mg E4 QD per os, week 11): −1.0123 | Relative change (% from baseline) in weekly severity of moderate to severe VMS, mean (15 mg E4 QD per os, week 11): −42% | Mean change from baseline in weekly severity of moderate to severe VMS (15 mg E4 QD per os, week 12): −1.0425 | Relative change (% from baseline) in weekly severity of moderate to severe VMS, mean (15 mg E4 QD per os, week 12): −44% | Difference with placebo, LS adjusted mean, absolute change in weekly severity of moderate to severe VMS (15 mg E4 vs placebo, week 4): −0.261 | Difference with placebo, LS adjusted mean, relative change in weekly severity of moderate to severe VMS (15 mg E4 vs placebo, week 4): −0.1017 | Difference with placebo, LS adjusted mean, absolute change in weekly severity of moderate to severe VMS (15 mg E4 vs placebo, week 12): −0.3838 | Difference with placebo, LS adjusted mean, relative change in weekly severity of moderate to severe VMS (15 mg E4 vs placebo, week 12): −0.1577 | Reduction in the severity of moderate to severe VMS when compared to baseline (15 mg daily dose): over 40%
